# Biological target: T1, fennel nsLTP1 (Anethum foeniculum, UniProt C0HLP9)
# T1 construct: native mature protein purified from seeds (gel filtration, RP-HPLC); 91 residues, 9433 Da, monomer
# T1 sequence (C0HLP9 1-91): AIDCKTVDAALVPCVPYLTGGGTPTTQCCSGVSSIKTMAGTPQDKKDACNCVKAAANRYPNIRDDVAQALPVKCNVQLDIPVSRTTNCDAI
# Test: TNS fluorescence displacement
# Type: binding
# Conditions: 3.5 µM TNS, 4 µM nsLTP1, fatty acid 5-20 µM; 175 mM mannitol, 0.5 mM K2SO4, 0.5 mM CaCl2, 5 mM MES pH 7.0, 25 °C; competitive with TNS
row,SMILES,% of the control fluorescence (nsLTP1-TNS complex)
1,"CCCCC/C=C\C/C=C\CCCCCCCC(=O)O [linoleic acid, cis, cis-9,12-Octadecadienoic acid]",4–40%
2,"CC/C=C\C/C=C\C/C=C\CCCCCCCC(=O)O [linolenic acid, all-cis-9,12,15-octadecatrienoic acid]",7–59%
3,CCCCCCCCCCCCCCCC(=O)O [palmitic acid],40–69%
4,CCCCCCCCCCCCCCCCCC(=O)O [stearic acid],21–59%
